Test results published in patent US10370371B2, “Substituted pyrimidine Bmi-1 inhibitors” (PTC Therapeutics, Inc., priority 2013, dated 2019).

tested on: Bmi-1 protein; experiment: Sandwich ELISA Assay (Bmi-1 protein level in HT-1080 cells); assay type: cell-based
Protocol: Cell Seeding and Compound Treatment (Day 1):
HT-1080 cells were seeded at 8000 cells/well (50 μL) in 96-well tissue culture plates. After the cells became adherent (3-4 hours), 2× diluted stocks of test compounds in 50 μL DMEM containing 1% DMSO (final DMSO concentration was 0.5%) were added and the plates were incubated at 37° C. under 5% CO2 for 40-48 hours.
ELISA Plate First Antibody Preparation (Day 2):
The First Antibody (Millipore Mouse, monoclonal to mouse Bmi-1, clone F6, catalog #05-637) diluted to 2 μg/mL in PBS was added (100 μL) to each well of a Nunc MaxiSorp 96-well ELISA plate. The plate was covered with a plate seal and allowed to stand overnight.
Cell Lysate Preparation (Day 3):
Fresh Lysis buffer (1×) was prepared on the day of the assay as follows: 1 mM EDTA, 150 mM NaCl, 0.5% Triton-X 100, 10 mM NaF, 20 mM B-Glycerophosphate, 1 mM DTT (in PBS, pH 7.2-7.4) and HALT protease inhibitor cocktail (1×) (Pierce #78410).
Lysis Buffer (1×, 40 μL) was added to each well and the plate was shaken for 5-10 minutes on an orbital shaker to allow cell lysis, then diluent (1% BSA in PBS in 0.5% NP40) (100 μL) was added to each well.
A standard curve was prepared at the following Bmi-1 concentrations: 8000, 4000, 2000, 1000, 500, 250, 125 and 0 pg/mL. The Bmi-1 Recombinant Protein Standard (Novus Biologicals PCGF4 Recombinant Protein (P01), catalog # H00000648-P01) used to prepare the standard curve was stored at −80° C. On first thaw, the Recombinant Protein Standard was diluted to 10 μg/μL in Blocking Buffer (1% BSA in PBS; BSA: Fisher Scientific Catalog #1600-100). Aliquots were taken and refrozen at −80° C. The aliquots may be kept at 4° C. and reused after first thaw, but only within 1-2 weeks. The Recombinant Protein Standard contains a GST-fusion tag that appears at approximately 70 Kda on Western Blot.
The prepared ELISA plate was washed 3× with Wash Buffer (0.05% Tween-20 in PBS). The final wash was removed from the plate and the plate was blotted dry. Blocking Buffer (300 μL) (1% BSA in PBS) was added to each well. The plate was covered with a plate seal and incubated at room temperature for 1 hour. The blocked plate was washed 3× with Wash Buffer, then the final wash was removed and the plate was blotted dry. The previously prepared samples and standards were added (100 μL/well) and the plate was covered with a plate seal and incubated at 4° C. overnight.
The prepared ELISA plate was removed from incubation and allowed to stand at room temperature for 30 minutes, then washed and blotted dry. The Second Antibody (Cell Signaling Rabbit anti-Bmi-1, Cat#2830) diluted to 1:600 in Blocking Buffer was added (100 μL) to each well, except as needed for background control wells. The plate was covered with a plate seal and incubated for 1.5 hrs at room temperature.
The ELISA plate was washed and blotted dry as previously described. The Third Antibody (Cell Signaling HRP conjugated anti-rabbit IgG (CellSignaling, Cat#:7074) diluted to 1:300 in Blocking Buffer was added (100 μL) to each well, except as needed for background control wells. The plate was incubated for 1 hr at room temperature.
The plate was washed and blotted dry, then a previously prepared TMB substrate (TMB substrate kit, Pierce catalog #34021) (prepared by mixing kit reagents 1:1) (100 μL) was added per well. The plate was incubated for 20-30 minutes at room temperature in the dark, then Stop Solution (2 M sulfuric acid in water) (50 μL) was added per well. The plates were read at OD450 (experimental) and OD570 (reference).

EC50	SMILES
10 to 100 nM	Nc1cc(-c2c(C(F)(F)F)nc3ccc(F)cn23)nc(Nc2ccc(C(F)(F)F)cc2)n1 [Cpd 50, 6-[6-fluoro-2-(trifluoromethyl)imidazo[1,2-a]pyridin-3-yl]-N^2-[4-(trifluoromethyl)phenyl]pyrimidine-2,4-diamine]
10 to 100 nM	Cc1nc2c(F)cccc2n1-c1cc(N)nc(Nc2ccc(OC(F)F)cc2)n1 [Cpd 51, N^2-[4-(difluoromethoxy)phenyl]-6-(4-fluoro-2-methyl-1H-benzimidazol-1-yl)pyrimidine-2,4-diamine]
100 to 3000 nM	Cc1cc(Nc2nc(N)cc(-n3c(C)nc4c(F)cccc43)n2)ccc1C(F)(F)F [Cpd 52, 6-(4-fluoro-2-methyl-1H-benzimidazol-1-yl)-N^2-[3-methyl-4-(trifluoromethyl)phenyl]pyrimidine-2,4-diamine]
10 to 100 nM	Cc1ccc2nc(C)n(-c3cc(N)nc(Nc4ccc(C(F)(F)F)c(C)c4)n3)c2c1 [Cpd 53, 6-(2,6-dimethyl-1H-benzimidazol-1-yl)-N^2-[3-methyl-4-(trifluoromethyl)phenyl]pyrimidine-2,4-diamine]
1 to 10 nM	Cc1ccc2nc(C)n(-c3cc(N)nc(Nc4ccc(OC(F)F)cc4)n3)c2c1 [Cpd 54, N^2-[4-(difluoromethoxy)phenyl]-6-(2,6-dimethyl-1H-benzimidazol-1-yl)pyrimidine-2,4-diamine]
10 to 100 nM	Nc1cc(-c2c(C(F)(F)F)nc3ccc(F)cn23)nc(Nc2ccc(OC(F)F)cc2)n1 [Cpd 55, N^2-[4-(difluoromethoxy)phenyl]-6-[6-fluoro-2-(trifluoromethyl)imidazo[1,2-a]pyridin-3-yl]pyrimidine-2,4-diamine]
100 to 3000 nM	Cc1nc2ccccc2n1-c1nc(Nc2ccc(C(F)(F)F)cc2)nc(N)c1F [Cpd 56, 5-fluoro-6-(2-methyl-1H-benzimidazol-1-yl)-N^2-[4-(trifluoromethyl)phenyl]pyrimidine-2,4-diamine]
10 to 100 nM	CCc1nc2ccccc2n1-c1nc(Nc2ccc(C(F)(F)F)cc2)nc(N)c1F [Cpd 57, 6-(2-ethyl-1H-benzimidazol-1-yl)-5-fluoro-N^2-[4-(trifluoromethyl)phenyl]pyrimidine-2,4-diamine]
100 to 3000 nM	Cc1nc2ccc(F)cc2n1-c1nc(Nc2ccc(C(F)(F)F)cc2)nc(N)c1F [Cpd 58, 5-fluoro-6-(6-fluoro-2-methyl-1H-benzimidazol-1-yl)-N^2-[4-(trifluoromethyl)phenyl]pyrimidine-2,4-diamine]
100 to 3000 nM	CCc1nc2ccc(F)cc2n1-c1nc(Nc2ccc(C(F)(F)F)cc2)nc(N)c1F [Cpd 59, 6-(2-ethyl-6-fluoro-1H-benzimidazol-1-yl)-5-fluoro-N^2-[4-(trifluoromethyl)phenyl]pyrimidine-2,4-diamine]
10 to 100 nM	Cc1nc2c(F)cc(F)cc2n1-c1cc(N)nc(Nc2ccc(OC(F)F)cc2)n1 [Cpd 60, N^2-[4-(difluoromethoxy)phenyl]-6-(4,6-difluoro-2-methyl-1H-benzimidazol-1-yl)pyrimidine-2,4-diamine]
10 to 100 nM	Nc1cc(-n2c(C3CC3)nc3ccccc32)nc(Nc2ccc(C(F)(F)F)cc2)n1 [Cpd 61, 6-(2-cyclopropyl-1H-benzimidazol-1-yl)-N^2-[4-(trifluoromethyl)phenyl]pyrimidine-2,4-diamine]
100 to 3000 nM	Cc1nc2ncccc2n1-c1nc(Nc2ccc(C(F)(F)F)cc2)nc(N)c1F [Cpd 62, 5-fluoro-6-(2-methyl-1H-imidazo[4,5-b]pyridin-1-yl)-N^2-[4-(trifluoromethyl)phenyl]pyrimidine-2,4-diamine]
10 to 100 nM	Nc1cc(-n2c(C3CC3)nc3cc(F)c(F)cc32)nc(Nc2ccc(C(F)(F)F)cc2)n1 [Cpd 64, 6-(2-cyclopropyl-5,6-difluoro-1H-benzimidazol-1-yl)-N^2-[4-(trifluoromethyl)phenyl]pyrimidine-2,4-diamine]
10 to 100 nM	CCc1nc2cc(F)c(F)cc2n1-c1cc(N)nc(Nc2ccc(C(F)(F)F)cc2)n1 [Cpd 65, 6-(2-ethyl-5,6-difluoro-1H-benzimidazol-1-yl)-N^2-[4-(trifluoromethyl)phenyl]pyrimidine-2,4-diamine]
1 to 10 nM	Nc1cc(-n2c(C3CC3)nc3cc(F)c(F)cc32)nc(Nc2ccc(OC(F)F)cc2)n1 [Cpd 66, 6-(2-cyclopropyl-5,6-difluoro-1H-benzimidazol-1-yl)-N^2-[4-(difluoromethoxy)phenyl]pyrimidine-2,4-diamine]
100 to 3000 nM	N#Cc1cc(-n2c(C3CC3)nc3cc(F)c(F)cc32)nc(Nc2ccc(C(F)(F)F)cc2)n1 [Cpd 67, 6-(2-cyclopropyl-5,6-difluoro-1H-benzimidazol-1-yl)-2-{[4-(trifluoromethyl)phenyl]amino}pyrimidine-4-carbonitrile]
100 to 3000 nM	Cc1nc2cc(F)c(F)cc2n1-c1cc(C#N)nc(Nc2ccc(C(F)(F)F)cc2)n1 [Cpd 68, 6-(5,6-difluoro-2-methyl-1H-benzimidazol-1-yl)-2-{[4-(trifluoromethyl)phenyl]amino}pyrimidine-4-carbonitrile]
10 to 100 nM	Nc1cc(-n2c(C(F)F)nc3ccccc32)nc(Nc2ccc(C(F)(F)F)cc2)n1 [Cpd 69, 6-[2-(difluoromethyl)-1H-benzimidazol-1-yl]-N^2-[4-(trifluoromethyl)phenyl]pyrimidine-2,4-diamine]
10 to 100 nM	Nc1cc(-n2c(C(F)F)nc3ccc(F)cc32)nc(Nc2ccc(OC(F)F)cc2)n1 [Cpd 72, N^2-[4-(difluoromethoxy)phenyl]-6-[2-(difluoromethyl)-6-fluoro-1H-benzimidazol-1-yl]pyrimidine-2,4-diamine]
100 to 3000 nM	NC(=O)c1cccc(Nc2nccc(-c3cnc4ccccn34)n2)c1 [Cpd 75, 3-{[4-(imidazo[1,2-a]pyridin-3-yl)pyrimidin-2-yl]amino}benzamide]
10 to 100 nM	CCc1nc2cc(F)c(F)cc2n1-c1cc(N)nc(Nc2ccc(OC(F)F)cc2)n1 [Cpd 76, N^2-[4-(difluoromethoxy)phenyl]-6-(2-ethyl-5,6-difluoro-1H-benzimidazol-1-yl)pyrimidine-2,4-diamine]
10 to 100 nM	Cc1nc2cc(F)c(F)cc2n1-c1cc(N)nc(Nc2ccc(OC(F)F)cc2)n1 [Cpd 77, N^2-[4-(difluoromethoxy)phenyl]-6-(5,6-difluoro-2-methyl-1H-benzimidazol-1-yl)pyrimidine-2,4-diamine]
10 to 100 nM	Cc1nn2ccccc2c1-c1cc(N)nc(Nc2ccc(C(F)(F)F)cc2)n1 [Cpd 82, 6-(2-methylpyrazolo[1,5-a]pyridin-3-yl)-N^2-[4-(trifluoromethyl)phenyl]pyrimidine-2,4-diamine]
10 to 100 nM	Cc1nc2ccccc2n1-c1cc(N)nc(Nc2ccc(OC(F)F)cc2)n1 [Cpd 83, N^2-[4-(difluoromethoxy)phenyl]-6-(2-methyl-1H-benzimidazol-1-yl)pyrimidine-2,4-diamine]
10 to 100 nM	CCc1nc2ccccc2n1-c1cc(N)nc(Nc2ccc(OC(F)F)cc2)n1 [Cpd 84, N^2-[4-(difluoromethoxy)phenyl]-6-(2-ethyl-1H-benzimidazol-1-yl)pyrimidine-2,4-diamine]
10 to 100 nM	Nc1cc(-n2c(C3CC3)nc3ccccc32)nc(Nc2ccc(OC(F)F)cc2)n1 [Cpd 85, 6-(2-cyclopropyl-1H-benzimidazol-1-yl)-N^2-[4-(difluoromethoxy)phenyl]pyrimidine-2,4-diamine]
100 to 3000 nM	Nc1cc(-n2c(C3CC3)nc3cc(Cl)ccc32)nc(Nc2ccc(C(F)(F)F)cc2)n1 [Cpd 86, 6-(5-chloro-2-cyclopropyl-1H-benzimidazol-1-yl)-N^2-[4-(trifluoromethyl)phenyl]pyrimidine-2,4-diamine]
10 to 100 nM	Nc1cc(-n2c(C3CC3)nc3ccc(Cl)cc32)nc(Nc2ccc(C(F)(F)F)cc2)n1 [Cpd 87, 6-(6-chloro-2-cyclopropyl-1H-benzimidazol-1-yl)-N^2-[4-(trifluoromethyl)phenyl]pyrimidine-2,4-diamine]
